Test results: patent US20220160680A1, “MICROORGANISM MIXTURES, MOLECULES DERIVED THEREFROM, AND METHODS OF USE THEREOF” (B. G. Negev Technologies and Applications Ltd., at …, priority 2018, published 2022)
Entries after “also recorded” stand apart in the source; their conditions may differ.

Key:
[1] = test system: V. cholerae VC1 (WT) and MM920; test: V. cholerae biofilm modulation (CLSM, crystal violet); type: cell-based, Vibrio cholerae; settings: 900 nM CAI-1
Procedure: The various pathogenic indicator strains used in this study were V. cholerae strain MM920 (ACqsA AluxQ), Vibrio harveyi strain MM30 (LuxS, Tn5). To initiate biofilm formation, bacteria was grown in the absence of the V. cholerae autoinducer 1 (CAI1). In addition, the bacteria were grown in presence of: 900 nM CAI1 (Vibrio Cholerae MM920), 900 nM CAI1, 200 μM Tryptophol acetate and 200 μM Tyrosol acetate, and 200 μM Tryptophol acetate and 200 μM Tyrosol acetate.
Biofilms were grown under shaking conditions at 30° C. in 96-well plate (Thermo Scientific, Rochester, N.Y., USA). […] The stained cells were washed twice with PBS. Biofilm images were taken by CLSM (Plan-Apochromat 20×/0.8 M27, Zeiss LSM880, Germany).
For static biofilm assay, overnight cultures of V. cholerae strain MM920 was diluted 1:10 in fresh LB medium containing a final concentration of 100 μM from each Tryptophol acetate and Tyrosol acetate or DMSO (up to 1%) as control. […] One in absence of the V. cholerae autoinducer (CAI-1) and the other one in presence of 900 nM CAI-1. Biofilms were grown under non-shaking conditions at 37° C. in 96-well plate (Thermo Scientific, Rochester, N.Y., USA). […] The stained cells were washed twice with PBS. Biofilm images were taken by CLSM (Plan-Apochromat 20×/0.8 M27, Zeiss LSM880, Germany).
Biofilm matrixes of V. cholerae VC1 WT (FIGS. 23Ai and 23Aii), and the V. cholerae MM920 mutant (FIGS. 23Aiii and 23Aiv) were grown for 24 hours with or without tryptophol acetate in the growth medium, and stained using the BacLight® Dead/Live Kit to distinguish viable cells.

Peritoneal macrophages = test: In vitro LPS stimulation of peritoneal macrophages, cytokine ELISA (24 hr); type: cell-based, mice; settings: 100 μM, 0.1 μg/ml LPS
Procedure: Peritoneal macrophages were harvested using the protocol as described previously (Zhang et al., 2008). Elicited macrophages were harvested from WT mice which had received a 2.5 ml intraperitoneal administration of 3% Brewer thioglycolate broth (Sigma, UK) 72 hr prior collection.
Peritoneal macrophages cells (5×10^5/ml) were cultured with 0.1 μg/ml Lipopolysaccharides (LPS-Escherichia coli serotype 0127:B8, Sigma-Aldrich) and in the presence of 100 μM: tryptophol acetate, tyrosol acetate, dopamine HCl, caffeic acid, or combination of tryptophol acetate and tyrosol acetate, for 24 hr. Following culture, supernatants were collected and stored at −20° C. for the detection of the IL-6 cytokine. For IL-la detection, the inventors induced macrophages lysis by adding fresh RPMI medium and thawing three times.
IL-la and IL-6 levels were measured in peritoneal exudate fluids and LPS-stimulated culture supernatants by ELISA. To detect the cytokines, a R&D ELISA kit (Catalog #MLA00 and DY406, respectively) was used as per the manufacturer's instructions. A standard curve was constructed using serial dilutions of purified IL-la or IL-6 starting at a concentration of 15 ng/ml.

With `CCCCCCCCCC(=O)[C@@H](O)CC` [CAI-1, reference compound] the “Biofilm of V. cholerae MM920, autoinducer alone” value [1] was “disruption of biofilm integrity”.
With `O=C(O)/C=C/c1ccc(O)c(O)c1` [caffeic acid] the “Production of IL-6” value (Peritoneal macrophages) was “comparable results; also recorded: dramatically reduced”.
